Where a name gives a salt, the structure may show the parent alone.
Key:
Assay type in all cases: physicochemical
[1] = release of benzydamine hydrochloride from hydrogel of crosslinked hyaluronic acid obtained with catalytic CuSO4.5H2O; conditions: hydrogel of HA (product 1 + product 2) crosslinked with catalytic CuSO4.5H2O and ascorbic acid, Example 11; release in 100 ml distilled water
Method: 50 mg of product 1 and 50 mg of product 2 are dissolved in 1.3 ml of distilled water and separately 13.8 mg of benzydamine hydrochloride are dissolved in 0.5 ml of distilled water. The solution of hyaluronic acid is mixed with that of benzydamine hydrochloride; 0.1 ml of an aqueous solution obtained with 50 mg of CuSO4.5H2O in 1 ml of H2O and 0.1 ml of an aqueous solution of 20 mg of ascorbic acid are then added.
The mixture is stirred vortically for a few minutes. The rapidly formed gel incorporates the benzydamine hydrochloride inside.
(§1) The quantity of benzydamine hydrochloride released from the hydrogel, in 100 ml of distilled water, is determined by means of U.V. spectrophotometric measurements at λ=308 nm by interpolation of the absorbance values on a calibration line constructed using solutions of the drug at known concentration.
(§2) The release measurements of the drug are performed on the hydrogel described above.

[2] = release of benzydamine hydrochloride from hydrogel of crosslinked hyaluronic acid obtained with catalytic CuCl; conditions: hydrogel of HA (product 1 + product 2) crosslinked with catalytic CuCl, Example 11; release in 100 ml phosphate buffer solution pH=7.4
Method: 69 mg of benzydamine hydrochloride are dissolved in 2 ml of water and 50 mg of product 1 and 50 mg of product 2 synthesized as described above, are then added.
830 μL of a 1% w/V solution of CuCl are subsequently added to the solution and the gel is formed after a few minutes directly incorporating the drug.
as §1, with “ml of a phosphate buffer solution pH=7.4, is determined” for “ml of distilled water, is determined”, “drug at a known concentration.” for “drug at known concentration.”
as §2

[3] = release of benzydamine hydrochloride from hydrogel of hyaluronic acid with 1,6-Heptadiyne; conditions: hydrogel of HA (product 1) with 1,6-heptadiyne, catalytic CuSO4.5H2O and ascorbic acid, Example 13; release in 100 ml distilled water
Method: (§3) 100 mg of product 1 are dissolved in 1.1 ml of distilled water; a solution of 140 μl of 1,6-Heptadiyne in 9.86 ml of DMSO are prepared separately, whereas 13.8 mg of benzydamine hydrochloride are dissolved in 0.5 ml of distilled water. The solution of hyaluronic acid is mixed with that of benzydamine and with 0.2 ml of that of 1,6-Heptadiyne; 0.1 ml of an aqueous solution obtained with 50 mg of CuSO4.5H2O in 1 ml of H2O and 0.1 mL of an aqueous solution of 20 mg of ascorbic acid are then added. The mixture is stirred vortically for a few minutes. The rapidly formed gel incorporates the benzydamine hydrochloride inside.
as §1

[4] = release of doxorubicin hydrochloride from hydrogel of hyaluronic acid with 1,6-heptadiyne; conditions: hydrogel of HA (product 1) with 1,6-heptadiyne, catalytic CuSO4.5H2O and ascorbic acid, Example 13; release in 100 ml distilled water
Method: as §3, with “23.2” for “13.8”, “doxorubicin” for “benzydamine”, “ml” for “mL”, “gel (see FIG. 28)” for “gel”
as §1, with “doxorubicin” for “benzydamine”, “λ=486” for “λ=308”

[5] = release of doxorubicin hydrochloride from hydrogel of hyaluronic acid with 1,4-diethynylbenzene; conditions: hydrogel of HA (product 1) with 1,4-diethynylbenzene, catalytic CuSO4.5H2O and ascorbic acid, Example 13; release in 100 ml distilled water
Method: 100 mg of product 1 are dissolved in 1.1 ml of distilled water and 3 mg of 1,4-Diethynylbenzene are dissolved separately in 0.2 ml of DMSO, whereas 23.2 mg of doxorubicin hydrochloride are dissolved in 0.5 ml of distilled water. The three solutions are mixed, 0.1 ml of an aqueous solution obtained with 50 mg of CuSO4.5H2O in 1 ml of H2O and 0.1 ml of an aqueous solution of 20 mg of ascorbic acid are then added. The mixture is stirred vortically for a few minutes. The rapidly formed gel (see FIG. 26) incorporates the doxorubicin hydrochloride inside.
as §1, with “doxorubicin” for “benzydamine”, “λ=486” for “λ=308”
The release measurements of the drug are effected on the hydrogel described above.

[6] = release of doxorubicin hydrochloride from hydrogel of crosslinked hyaluronic acid obtained with catalytic CuCl; conditions: hydrogel of HA (product 1 + product 2) crosslinked with catalytic CuCl, Example 11; release in 100 ml distilled water
Method: 29 mg of doxorubicin hydrochloride are dissolved in 2 ml of water and 50 mg of product 1 and 50 mg of product 2 synthesized as described above, are then added. 830 μL of a 1% w/V solution of CuCl are subsequently added to the solution and the gel is formed after a few minutes directly incorporating the drug present in solution.
(§4) The quantity of doxorubicin hydrochloride released from the hydrogel in 100 ml of distilled water, is determined by U.V. spectrophotometric measurements at λ=486 nm by interpolation of the absorbance values on a calibration line constructed using solutions of the drug at known concentration.
as §2

[7] = release of doxorubicin hydrochloride from hydrogel of hyaluronic acid with 1,8-Nonadiyne; conditions: hydrogel of HA (product 1) with 1,8-Nonadiyne, catalytic CuSO4.5H2O and ascorbic acid, Example 13; release in 100 ml distilled water
Method: 100 mg of product 1 are dissolved in 1.1 ml of distilled water; a solution of 200 μl of 1,8-Nonadiyne in 11.23 ml of DMSO are prepared separately, whereas 23.2 mg of doxorubicin hydrochloride are dissolved in 0.5 ml of distilled water. The solution of hyaluronic acid is mixed with that of doxorubicin and with 0.2 ml of that of 1,8-Nonadiyne; 0.1 ml of an aqueous solution obtained with 50 mg of CuSO4.5H2O in 1 ml of H2O and 0.1 ml of an aqueous solution of 20 mg of ascorbic acid are then added. The mixture is stirred vortically for a few minutes. The rapidly formed gel (see FIG. 31) incorporates the doxorubicin hydrochloride inside.
as §4, with “from the hydrogel, in 100” for “from the hydrogel in 100”, “determined by means of U.V. spectrophotometric” for “determined by U.V. spectrophotometric”
as §2

Structure (SMILES)	maximum quantity released, of the quantity of drug initially incorporated in the gel [1] [%]	period over which the maximum quantity of drug is released [1]	maximum quantity released, of the quantity of drug initially incorporated in the gel [2] [%]	period over which the maximum quantity of drug is released [2]	maximum quantity released, of the quantity of drug initially incorporated in the gel [3] [%]	period over which the maximum quantity of drug is released [3]	maximum quantity released, of the quantity of drug initially incorporated in the gel [4] [%]	period over which the maximum quantity of drug is released [4]	maximum quantity released, of the quantity of drug initially incorporated in the gel [5] [%]	period over which the maximum quantity of drug is released [5]	maximum quantity released, of the quantity of drug initially incorporated in the gel [6] [%]	period over which the maximum quantity of drug is released [6]	maximum quantity released, of the quantity of drug initially incorporated in the gel [7] [%]	period over which the maximum quantity of drug is released [7]
CN(C)CCCOc1nn(Cc2ccccc2)c2ccccc12 [benzydamine hydrochloride]	70	about 5 h	88	about 3.5 h	80	about 6 h								
COc1cccc2c1C(=O)c1c(O)c3c(c(O)c1C2=O)C[C@@](O)(C(=O)CO)C[C@@H]3O[C@H]1C[C@H](N)[C@H](O)[C@H](C)O1 [doxorubicin hydrochloride]							23	about 250 h	50	about 50 h	25	about 160 h	14	about 100 h

From US8512752B2, “Hyaluronic acid derivatives obtained via “click chemistry” crosslinking” (Fidia Farmaceutici S.p.A., priority 2006, dated 2013)
